Source: the Kinase Knowledgebase extract (Sharma et al. 2016)

The compounds below were run against MAPK14;MAPK11;MAPK12 (human) (UniProt Q16539) (assay: Inhibition of p38 Kinase Activity).

SMILES	IC50 [nM]
Cc1ccc(C(N)=O)cc1Nc1nc(N[C@@H]2CCN(C(C)CO)C2)nc(N(C)CC(C)(C)C)n1 (stereo not given in full)	< 1000
Cc1ccc(C(N)=O)cc1Nc1nc(N[C@H]2CCNC2)nc(N(C)CC2CCCCC2)n1	< 1000
CCCC1(C)CCN(c2nc(Nc3cc(C(N)=O)ccc3C)nc(N[C@@H]3CCNC3)n2)C1 (stereo not given in full)	< 1000
CC(CN(C)c1nc(Nc2ccc3ncsc3c2)nc(N2CCNCC2)n1)c1ccccc1 (stereo not given)	< 10000
COCCN1CCC(Nc2nc(Nc3cc(C(N)=O)ccc3C)nc(N(C)CC(C)C)n2)C1 (stereo not given)	< 1000
CCNC(=O)N(C)CCCN(C)c1nc(NCC(C)c2ccccc2)nc(Nc2ccc3ncsc3c2)n1 (stereo not given)	< 10000
CC(CNc1nc(Nc2ccc3ncsc3c2)nc(N(C)CCCN(C)C(=O)c2cccnc2)n1)c1ccccc1 (stereo not given)	< 10000
Cc1ccc(COC(=O)C(F)(F)F)cc1Nc1nc(N[C@H]2CCNC2)nc(N(C)CC(C)(C)C)n1	< 1000
CONC(=O)c1ccc(C)c(Oc2nc(NCc3ccccn3)nc(N(C)CC(C)(C)C)n2)c1	< 30000
CC(CNc1nc(Nc2ccc3ncsc3c2)nc(N2CCN(C(=N)N)CC2)n1)c1ccccc1 (stereo not given)	< 10000
CC(=O)NCCNc1nc(Nc2cc(C(N)=O)ccc2C)nc(N(C)CC(C)(C)C)n1	< 1000
COCC(C)N1CC[C@@H](Nc2nc(Nc3cc(C(N)=O)ccc3C)nc(N(C)CC(C)(C)C)n2)C1 (stereo not given in full)	< 1000
Cc1ccc(C(N)=O)cc1Nc1cc(NC(C)c2ccccc2)nc(NCC(N)=O)n1 (stereo not given)	< 1000
Cc1ccc(C(N)=O)cc1Nc1nc(N[C@H]2CCNC2)nc(N(C)CC(C)c2ccccc2)n1 (stereo not given in full)	< 1000
CC(=O)Nc1ccc(C)c(Nc2nc(NCC(C)(C)C)nc(N[C@H]3CCNC3)n2)c1	< 1000
CC(C)NC(=O)N1CCN(c2nc(NCC(C)c3ccccc3)nc(Nc3ccc4ncsc4c3)n2)CC1 (stereo not given)	< 10000
Cc1cc2c(cc1Cl)C(=O)N2c1nc(N[C@H]2CCNC2)nc(N(C)CC(C)C)n1	< 1000
CNC1CCN(c2cc(NCCOC(C)C)nc(-n3cnc4cc(C)ccc43)n2)C1 (stereo not given)	< 10000
CONC(=O)c1ccc(C)c(Nc2nc(N(C)CCN(C)C)nc(N(C)CC(C)(C)C)n2)c1	< 1000
CC1(C)C2CCC(CNc3nc(Nc4ccc5ncsc5c4)nc(N4CCC(C(N)=O)CC4)n3)C1C2 (stereo not given)	< 10000
CC(=O)NCc1ccc(C)c(Nc2nc(N[C@H]3CCNC3)nc(N(C)CC(C)(C)C)n2)c1	< 1000
Cc1ccc(C(=O)NC(C)C)cc1Nc1nc(N[C@H]2CCNC2)nc(N(C)CC(C)C)n1	< 1000

SMILES	IC50 [nM]
Cc1ccc(C(N)=O)cc1Nc1nc(NC2CCN(Cc3ccc(C(C)C)cc3)C2)nc(N(C)CC(C)C)n1 (stereo not given)	< 1000
COc1ccccc1CN1CCC(Nc2nc(Nc3cc(C(N)=O)ccc3C)nc(N(C)CC(C)C)n2)C1 (stereo not given)	< 1000
Cc1ccc(C(N)=O)cc1Nc1nc(NC2CCCC2)nc(N(CCO)Cc2ccccc2)n1	< 1000
Cc1ccc(C(N)=O)cc1Oc1nc(N[C@@H]2CCNC2)nc(N(C)CC(C)(C)C)n1	< 30000
Nc1nc(NCCc2ccccc2)nc(Nc2ccc(S(=O)(=O)Nc3ncccn3)cc2)n1	< 10000
C[C@H](CNc1nc(Nc2ccc3ncsc3c2)nc(N(C)CCN(C)C(=O)CCC(=O)O)n1)c1ccccc1	< 10000
CNC(=O)c1ccc(C)c(Sc2nc(N[C@@H]3CCNC3)nc(N(C)CC(C)(C)C)n2)c1	< 30000
Cc1ccc(C(N)=O)cc1Nc1nc(N[C@H]2CCN(C3CCCCC3)C2)nc(N(C)CC(C)C)n1	< 1000
CC(CNc1nc(Nc2ccc3ncsc3c2)nc(N2CC3CC2CN3C(=O)c2cccnc2)n1)c1ccccc1 (stereo not given)	< 10000
Cc1ccc(C(N)=O)cc1Nc1nc(N[C@@H]2CCNC2)nc(N2CCc3ccccc3C2)n1	< 1000
Cc1ccc(C(N)=O)cc1Nc1nc(NCC2CC3CCC2C3)nc(N[C@H]2CCNC2)n1 (stereo not given in full)	< 1000
Cc1ccc(C(N)=O)cc1Nc1nc(N[C@@H]2CCNC2)nc(N(C)CC2(C)CCCC2)n1	< 1000
CNC(=O)c1ccc(C)c(Nc2nc(N[C@H]3CCN(C(C)CO)C3)nc(N(C)CC(C)(C)C)n2)c1 (stereo not given in full)	< 1000
Cc1ccc(C(N)=O)cc1Nc1nc(N[C@H]2CCN(c3ccccc3N)C2)nc(N(C)CC(C)(C)C)n1	< 1000
CC(CNc1nc(Nc2ccc3ncsc3c2)nc(N2CCN(C(=S)NC3CCCCC3)CC2)n1)c1ccccc1 (stereo not given)	< 10000
Cc1ccc(C(N)=O)cc1Nc1nc(N[C@H]2CCNC2)nc(OCC(C)(C)C)n1	< 1000
CONC(=O)c1ccc(C)c(Nc2nc(NCCN3CCCC3)nc(N(C)CC(C)(C)C)n2)c1	< 1000
Cc1cc2c(cc1Nc1nc(N[C@H]3CCNC3)nc(N(C)CC(C)(C)C)n1)C(=O)NC2	< 1000
CCONC(=O)c1ccc(C)c(Nc2nc(N(C)CC(C)(C)C)nc(N3CCCN(C)CC3)n2)c1	< 1000
Cc1ccc(C(=O)Nc2c(Cl)cccc2Cl)cc1Nc1nc(N[C@H]2CCNC2)nc(N(C)CC(C)(C)C)n1	< 1000
CC1(C)[C@H]2CC[C@@H](CNc3nc(N4CCCNCC4)nc(N4CCc5ccc([N+](=O)[O-])cc54)n3)[C@@H]1C2	< 1000
Cc1ccc(C(N)=O)cc1Nc1nc(NCC2CCNCC2)nc(NC2CCCC2)n1	< 1000

SMILES	IC50 [nM]
Cc1ccc(C(N)=O)cc1Nc1nc(NCC(C)c2ccccc2)nc(N[C@H]2CCNC2)n1 (stereo not given in full)	< 1000
CC1(C)C2CCC(CNc3nc(Nc4ccc5ncoc5c4)nc(N4CCN(C(=O)CCC(=O)O)CC4)n3)C1C2 (stereo not given)	< 10000
Cc1ccc(C(N)=O)cc1Nc1nc(N[C@H]2CCN(CCC#N)C2)nc(N(C)CC(C)(C)C)n1	< 1000
Cc1ccc(C(N)=O)cc1Nc1nc(N[C@H]2CCN(Cc3ccccc3)C2)nc(N(C)CC(C)(C)C)n1	< 1000
Cc1ccc(C(N)=O)cc1Nc1nc(NC2CCNC2)nc(NC2CCN(Cc3ccccc3)C2)n1 (stereo not given)	< 1000
CNC(=O)c1ccc(C)c(Nc2nc(N[C@H]3CCNC3)nc(N(C)CC(C)C)n2)c1	< 1000
CNc1nc(Nc2cc(C(=O)NOC)ccc2C)nc(N(C)CC(C)(C)C)n1	< 1000
Cc1ccc(C(N)=O)cc1Nc1nc(N[C@H]2CCN(Cc3ccc(Cl)cc3)C2)nc(N(C)CC(C)C)n1	< 1000
CC(C)NC(=O)N(C)CCCN(C)c1nc(NCC(C)c2ccccc2)nc(Nc2ccc3ncsc3c2)n1 (stereo not given)	< 10000
CC(C)OCCNc1cc(Cl)nc(-n2cnc3ccccc32)n1	< 10000
Cc1ccc(C(N)=O)cc1Nc1nc(N[C@H]2CCN(Cc3ccccn3)C2)nc(N(C)CC(C)C)n1	< 1000
CNC(=O)CCC(=O)N1CCN(c2nc(NCC3CC[C@H]4C[C@@H]3C4(C)C)nc(Nc3ccc4ncsc4c3)n2)CC1 (stereo not given in full)	< 10000
Cc1ccc2c(c1Nc1nc(NCC(C)(C)C)nc(N[C@H]3CCNC3)n1)CNC2=O	< 1000
CNC(=O)CCC(=O)N1CCN(c2nc(NCC3CCC4CC3C4(C)C)nc(Nc3ccc4ncsc4c3)n2)CC1 (stereo not given)	< 10000
COc1ccccc1CN1CC[C@@H](Nc2nc(Nc3cc(C(N)=O)ccc3C)nc(N(C)CC(C)C)n2)C1	< 1000
O=C(O)CCC(=O)N1CCN(c2nc(NCC3CCCCC3)nc(Nc3ccc4ncsc4c3)n2)CC1	< 10000
C[C@H](CNc1nc(Cl)nc(Nc2ccc3ncsc3c2)n1)c1ccccc1	< 10000
Cc1ccc(CO)cc1Nc1nc(N[C@H]2CCNC2)nc(N(C)CC(C)(C)C)n1	< 1000
Cc1ccc(C(N)=O)cc1Nc1nc(N[C@H]2CCCC[C@H]2NC(C)C)nc(N(C)CC(C)(C)C)n1	< 1000
Cc1ccc(C(N)=O)cc1Nc1nc(N[C@H]2CCN(Cc3ccccc3C#N)C2)nc(N(C)CC(C)C)n1	< 1000
CC(CNc1cc(N2CCOCC2)nc(Nc2ccc3ncccc3c2)n1)c1ccccc1 (stereo not given)	< 10000
